Key:
AlkR = biological target: T1, AlkR (Pseudomonas aeruginosa, UniProt Q9I3I7); assay: EMSA, release of AlkR from alkB2 promoter DNA; type: binding; settings: AlkR 5.8 × 10^-7 M, P3 DNA fragment 5 × 10^-7 M, pH 7.5, 37 °C; not an IC50
T1 construct: gene PA1526
T1 sequence (Q9I3I7 1-219): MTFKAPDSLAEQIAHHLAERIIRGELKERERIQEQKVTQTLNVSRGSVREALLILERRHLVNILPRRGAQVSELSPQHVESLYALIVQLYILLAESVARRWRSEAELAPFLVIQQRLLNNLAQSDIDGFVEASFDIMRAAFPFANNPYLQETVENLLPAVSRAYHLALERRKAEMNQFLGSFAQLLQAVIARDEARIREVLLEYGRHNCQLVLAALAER

[1] = biological target: AlkR, GntR/VanR transcription regulator of Pseudomonas aeruginosa SJTD-1 (Pseudomonas aeruginosa SJTD-1); assay: SEC; size exclusion chromatography of purified recombinant AlkR; conditions not given
[2] = biological target: AlkR, GntR/VanR transcription regulator of Pseudomonas aeruginosa SJTD-1 (Pseudomonas aeruginosa SJTD-1); assay: cross-linking; purified recombinant AlkR treated with sulfo-EGS, detected by 8% native PAGE

| Molecule | concentration for effective dissociation of the AlkR/DNA complex (AlkR) | stoichiometry N [1] | stoichiometry N [2] |
| --- | --- | --- | --- |
| CCCCCCCCCCCCCCCC(=O)SCCNC(=O)CCNC(=O)[C@H](O)C(C)(C)COP(=O)(O)OP(=O)(O)OC[C@H]1O[C@@H](n2cnc3c(N)ncnc32)[C@H](O)[C@@H]1OP(=O)(O)O [C16-CoA, palmitoyl coenzyme A] | ~ 150 μM | – | – |
| CCCCCCCC/C=C\CCCCCCCC(=O)SCCNC(=O)CCNC(=O)[C@H](O)C(C)(C)COP(=O)(O)OP(=O)(O)OC[C@H]1O[C@@H](n2cnc3c(N)ncnc32)[C@H](O)[C@@H]1OP(=O)(O)O [C18-CoA, oleyl coenzyme A] | ~ 80 μM | – | – |
| AlkR, GntR/VanR transcription regulator of Pseudomonas aeruginosa SJTD-1 (natural protein) | – | 2 | 2 |

Source: article PMC12042122, “The GntR/VanR transcription regulator AlkR represses AlkB2 monooxygenase expression and regulates n‐alkane degradation in Pseudomonas aeruginosa SJTD‐1” (mLife, 2025)
